Holding throughout (type): in vivo
The nature of series [1]: Acute toxicity in white mice after oral administration. The note with it: mouse, in vivo, single oral dose 300 mg/kg, observation time 14 days. As to the method: (§1) The acute toxicity was determined in white mice after oral administration of a single dose of 300 mg/kg (observation time: 14 days).
A further series deals with white mice. The description is as above. The following applies: single oral dose 300 mg/kg, observation time 14 days. As to the method:
as §1

A further series has as its system anesthetized cat. Description: Effect on blood pressure and positive inotropic activity in the anesthetized cat. The following applies: 2.0 mg/kg i.v., average value, at least 3 cats. The method, then: 1. Determination of the effect on blood pressure and of the positive inotropic activity in the anesthetized cat
The test was performed on cats which were anesthetized with pentobarbital sodium (40 mg/kg i.p.). The animals breathed spontaneously. The arterial blood pressure was measured in the aorta abdominalis by a Statham pressure transducer (P 23 Dc). The positive inotropic effect was determined by measuring the pressure in the left ventricle by means of a catheter tip manometer (Millar PC 360 A). The contractility parameter (dp/dtmax) was registered by means of an analog differentiating circuit.
The test compound was injected into the vena femoralis. Physiological sodium chloride solution or polydiol 200 was used as solvent. Each substance was tested in at least 3 cats, dose 2 mg/kg i.v.

The record followed here is patent US4327100A, “2-(Alkoxy-phenyl)-imidazo(4,5-b)pyridines and salts thereof” (Boehringer Ingelheim GmbH, priority 1979, dated 1982).

Structures are written as SMILES.

On to `COc1ccc(-c2nc3ncccc3[nH]2)c(OCC[S+]([O-])c2ccc(Cl)cc2)c1` (centres unmarked) [B, 2-{2-[2-(4-Chlorophenylsulfinyl)-ethoxy]-4-methoxyphenyl}-imidazo-[4,5-b]pyridine], for which the LD50 (as a rule, the dose expected to kill half of the subjects tested) at 336 h in series [1] is over 300 mg/kg. The animals died with white mice is listed as 0 out of 6. In addition, the “Change in blood pressure, second value of the printed pair (diastolic, not labelled in the patent)” value (from here on “Change … (diastolic, not labelled in the patent)”) with anesthetized cat worked out at 42 mmHg.
Compound `COc1ccc(-c2nc3ncccc3[nH]2)c(OCC[S+]([O-])c2ccc(C)cc2)c1` (centres unmarked) [C, 2-{2-[2-(4-Methylphenylsulfinyl)-ethoxy]-4-methoxyphenyl}-imidazo[4,5-b]pyridine] had an LD50 at 336 h in series [1] of over 300 mg/kg. In the series with white mice, the animals died is recorded as 0 out of 6. For the same compound, in the series with anesthetized cat, the “Change … (diastolic, not labelled in the patent)” value came out at 45 mmHg.
For `COc1ccc(-c2nc3ncccc3[nH]2)c(OCC[S+]([O-])c2ccc([N+](=O)[O-])cc2)c1` (centres unmarked) [E, 2-{2-[2-(4-Nitrophenylsulfinyl)-ethoxy]-4-methoxyphenyl}-imidazo[4,5-b]pyridine], the “Change … (diastolic, not labelled in the patent)” value in the series on anesthetized cat is reported as 32 mmHg.
As to `COc1ccc(-c2nc3ncccc3[nH]2)c(OCC[S+]([O-])c2ccccc2)c1` (centres unmarked) [A, 2-[2-(2-Phenylsulfinyl-ethoxy)-4-methoxyphenyl]imidazo[4,5-b]pyridine], the “Change … (diastolic, not labelled in the patent)” value in the series on anesthetized cat is 20 mmHg.
With `COc1ccc(-c2nc3ncccc3[nH]2)c(OCC[S+]([O-])c2cc(OC)c(OC)cc2C)c1` (centres unmarked) [D, 2-{2-[2-(2-Methyl-4,5-dimethoxyphenylsulfinyl)-ethoxy]-4-methoxyphenyl}-imidazo[4,5-b]pyridine], in series [1], the LD50 at 336 h is over 300 mg/kg. Also, the animals died in the series on white mice is given as 0 out of 6. The “Change … (diastolic, not labelled in the patent)” value in the series with anesthetized cat is recorded as 5 mmHg.
